pKd: −log10 of the molar value.
Target: T1, tcTERT (Tribolium castaneum TERT) (Tribolium castaneum, UniProt Q0QHL8)
T1 sequence (Q0QHL8 1-596): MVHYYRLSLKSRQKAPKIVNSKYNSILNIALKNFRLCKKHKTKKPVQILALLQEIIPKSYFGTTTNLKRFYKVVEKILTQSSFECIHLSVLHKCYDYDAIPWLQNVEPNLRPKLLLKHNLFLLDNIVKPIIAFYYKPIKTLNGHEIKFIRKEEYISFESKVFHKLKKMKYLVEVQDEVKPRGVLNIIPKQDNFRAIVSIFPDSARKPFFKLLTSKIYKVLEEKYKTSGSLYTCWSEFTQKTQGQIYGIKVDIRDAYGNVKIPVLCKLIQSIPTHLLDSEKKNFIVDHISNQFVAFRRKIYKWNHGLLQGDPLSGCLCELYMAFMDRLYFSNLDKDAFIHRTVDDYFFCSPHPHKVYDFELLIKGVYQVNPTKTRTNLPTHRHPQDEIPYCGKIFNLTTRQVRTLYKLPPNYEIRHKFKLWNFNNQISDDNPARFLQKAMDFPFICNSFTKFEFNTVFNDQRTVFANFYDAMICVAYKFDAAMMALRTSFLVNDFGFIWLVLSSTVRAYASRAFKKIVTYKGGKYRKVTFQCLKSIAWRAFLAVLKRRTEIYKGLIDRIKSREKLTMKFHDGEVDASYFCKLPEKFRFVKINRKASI
Assay: SPR with POPC:POPE:S1P
Format: binding

`CCCCCCCCCCCCC/C=C/[C@@H](O)[C@@H](N)COP(=O)(O)O` [S1P, sphingosine 1-phosphate] gave a pKd of about 5.32.
